According to article PMC11611271, “Rapid prediction of key residues for foldability by machine learning model enables the design of highly functional libraries with hyperstable constrained peptide scaffolds” (PLOS Computational Biology, 2024):
Where a SMILES comes first, the peptide text is derived from it. Bridges are numbered along the chain shown (N, C = ends).

Assays:
Type in all cases: binding
CD8α = assay: phage spot ELISA on CD8α; conditions: S3 Table sheet CD8α; for S/N: phage spot ELISA signal/noise; for ELISA: phage spot ELISA signal
Text: (§1) To determine the performance of the libraries for ligand discovery we chose a panel of eight protein targets, which have no structural homology and a wide mass range (Fig 7C). We screened these eight targets with solution panning strategy and two additional plate panning for CD8α/β and CD28, thus ten panning campaigns in total. We consider clones showing spot phage ELISA signal > 0.3 and signal/noise ratio > 2 as positive hits. At least one binding hit was discovered for nine out of the ten panning campaigns, surpassing the success rate of the best DCP scaffolds reported previously. We also obtained the NGS data for these screening and the ranking of clones for their enrichment along the rounds of screening was analyzed and considered the top-ranking clones as potential hits. Based on their sequence diversity we selected 16 potential hits spanning five protein targets for peptide synthesis in their linear form. Seven of these are hits with positive phage ELISA signal and nine were selected based on NGS ranking without spot ELISA available. Subsequently, we conducted in vitro folding experiments on these peptides in various buffers. We observed a strong propensity for spontaneous folding regardless of the buffer condition. All HCP hits tested successfully folded into three-disulfide-containing product within two days in a universal buffer system (PBS, pH 7.4, 50% DMSO) without the need for a redox pair, as shown in Fig 8A. The binding of these folded peptides to their respective target proteins was confirmed using SPR (Table 4 and S1 Data) and binding kinetics are exemplified by the high-affinity peptide 5ji4-CRD7-2 (see Fig 8B). Among seven selected ELISA-positive hits, all of them were successfully synthesized and in vitro folded with three disulfide bonds and five were proven to be validated binders by SPR (Table 4). Nine peptides selected from the NGS ranking were synthesized and folded with the expected number of disulfide bonds and five of them bound to their target with affinities in the μM range as determined by SPR (Table 4). In general, binding affinities for these SPR-validated initial hits are weak, with Kd values in the micromolar range and fast on- and off-rates. There are two exceptions with binding affinities in the nanomolar range.
(§2) The 5ji4 libraries were constructed following the Kunkel mutagenesis method and the solution panning protocol was followed as previously described. After four to five rounds of binding selection, while eluted pool was subjected to NGS analysis, individual phage clones were also picked and analyzed with phage spot ELISA. Positive clones were subjected to SANGER sequencing.

RSP02 = assay: phage spot ELISA on RSP02; conditions: for S/N: phage spot ELISA signal/noise; for S/N / ELISA: S3 Table sheet RSP02; for ELISA: phage spot ELISA signal
Text: as §1, §2

HtrA1 = assay: phage spot ELISA on HtrA1; conditions: for ELISA s/n: Spot ELISA signal/noise; for ELISA s/n / ELISA signal: Fig 9A; for ELISA signal: Spot ELISA
Text: To determine the performance of the libraries for ligand discovery we chose a panel of eight protein targets, which have no structural homology and a wide mass range (Fig 7C). We screened these eight targets with solution panning strategy and two additional plate panning for CD8α/β and CD28, thus ten panning campaigns in total. We consider clones showing spot phage ELISA signal > 0.3 and signal/noise ratio > 2 as positive hits. […] We also obtained the NGS data for these screening and the ranking of clones for their enrichment along the rounds of screening was analyzed and considered the top-ranking clones as potential hits. Based on their sequence diversity we selected 16 potential hits spanning five protein targets for peptide synthesis in their linear form. Seven of these are hits with positive phage ELISA signal and nine were selected based on NGS ranking without spot ELISA available. Subsequently, we conducted in vitro folding experiments on these peptides in various buffers.
as §2
Among these five hits, A7, which is the SANGER hit, was picked for affinity maturation. Following the same strategy, one soft- and one hard-randomization library was designed targeting the 5JI4 variable regions 1 and 2, respectively. Two libraries were each panned as previously described. Both phage spot ELISA coupled with SANGER sequencing and NGS analysis were applied after affinity maturation.

PCACDVNGETYTVSSSEECERLCTWWYFVVCRVHCG [CD8α clone 5, phage clone, 5JI4 library, CD8α panning]
S/N (CD8α): 3.0 | ELISA (CD8α): 0.282

PCDCDVNGETYTVSSSEECEPLCLNWLSSLCRVHCG [CD8α clone 3, phage clone, 5JI4 library, CD8α panning]
S/N (CD8α): 37.9 | ELISA (CD8α): 3.371

PCECDVNGETYTVSSSEECERCQDWLFYLCRVHCG [CD8α clone 4, phage clone, 5JI4 library, CD8α panning]
S/N (CD8α): 35.6 | ELISA (CD8α): 3.525

PCECDVNGETYTVSSSEECEPLCWMYNEHFCRVHCG [RSP02 clone 6, phage clone, 5JI4 library, RSP02 panning]
S/N (RSP02): 8.917 | ELISA (RSP02): 0.856

PCECTILRGWHFLTSSAECERLCRKLGVTNCRVHCG [HtrA1 clone 1, phage clone, 5JI4 library, HtrA1 panning; sole HtrA1 hit, probably 5ji4-A7]
S/N (HtrA1; phage spot ELISA signal/noise, S3 Table sheet HtrA1): 8.86 | ELISA (HtrA1; phage spot ELISA signal, S3 Table sheet HtrA1): 1.0205

PCECDVNGETYTVSSSEECEQDSDCLAGWVCRVHCG [CD8α clone 7, phage clone, 5JI4 library, CD8α panning]
S/N (CD8α): 34.2 | ELISA (CD8α): 3.252

PCECIVRWTTKQLESSEECERLCRKLGVTNCRVHCG [RSP02 clone 2, phage clone, 5JI4 library, RSP02 panning]
S/N (RSP02): 1.515 | ELISA (RSP02): 0.2

CSCC[C@@H]1NC(=O)[C@H](CO)NC(=O)[C@@H]2CSSC[C@H](NC(=O)[C@H](CCC(=O)O)NC(=O)[C@H](C)NC(=O)[C@H](CO)NC(=O)[C@H](CO)NC(=O)[C@H]([C@@H](C)O)NC(=O)[C@H](CCSC)NC(=O)[C@H](Cc3ccccc3)NC(=O)[C@H]([C@@H](C)O)NC(=O)[C@H](Cc3c[nH]c4ccccc34)NC(=O)CNC(=O)[C@@H]3CCCN3C(=O)[C@H](CC(C)C)NC1=O)C(=O)N[C@@H](CCC(=O)O)C(=O)N[C@@H](CCCNC(=N)N)C(=O)N[C@@H](CC(C)C)C(=O)N[C@H]1CSSC[C@H](NC(=O)[C@H]([C@@H](C)O)NC(=O)[C@H](CCCNC(=N)N)NC(=O)[C@H](CC(C)C)NC(=O)CNC(=O)[C@H](CC(C)C)NC(=O)[C@H](CCCNC(=N)N)NC(=O)[C@H](CC(=O)O)NC1=O)C(=O)N[C@@H](CCCNC(=N)N)C(=O)N[C@@H](C(C)C)C(=O)N[C@@H](Cc1c[nH]cn1)C(=O)N[C@H](C(=O)NCC(=O)O)CSSC[C@H](NC(=O)[C@@H]1CCCN1)C(=O)N[C@@H](CCC(=O)O)C(=O)N2 [5ji4_A7.B7B2] (H-PCECSMLPGWTFMTSSAECERLCDRLGLRTCRVHCG-OH; disulfide 2-35, 4-19, 23-31)
ELISA s/n (HtrA1): 7.2 | ELISA signal (HtrA1): 3.54

CC[C@H](C)[C@@H]1NC(=O)[C@H](CO)NC(=O)[C@@H]2CSSC[C@H](NC(=O)[C@H](CCC(=O)O)NC(=O)[C@H](C)NC(=O)[C@H](CO)NC(=O)[C@H](CO)NC(=O)[C@H]([C@@H](C)O)NC(=O)[C@H](CC(C)C)NC(=O)[C@H](Cc3ccccc3)NC(=O)[C@H](Cc3c[nH]cn3)NC(=O)[C@H](Cc3c[nH]c4ccccc34)NC(=O)CNC(=O)[C@H](CCCNC(=N)N)NC(=O)[C@H](CC(C)C)NC1=O)C(=O)N[C@@H](CCC(=O)O)C(=O)N[C@@H](CCCNC(=N)N)C(=O)N[C@@H](CC(C)C)C(=O)N[C@H]1CSSC[C@H](NC(=O)[C@H]([C@@H](C)O)NC(=O)[C@H](CCCNC(=N)N)NC(=O)[C@H](CC(C)C)NC(=O)CNC(=O)[C@H](CC(C)C)NC(=O)[C@H](CCCNC(=N)N)NC(=O)[C@H](CC(=O)O)NC1=O)C(=O)N[C@@H](CCCNC(=N)N)C(=O)N[C@@H]([C@@H](C)CC)C(=O)N[C@@H](Cc1c[nH]cn1)C(=O)N[C@H](C(=O)NCC(=O)O)CSSC[C@H](NC(=O)[C@@H]1CCCN1)C(=O)N[C@@H](CCC(=O)O)C(=O)N2 [5ji4_A7.D7B2] (H-PCECSILRGWHFLTSSAECERLCDRLGLRTCRIHCG-OH; disulfide 2-35, 4-19, 23-31)
ELISA s/n (HtrA1): 5.3 | ELISA signal (HtrA1): 3.45

CSCC[C@@H]1NC(=O)[C@H](Cc2c[nH]c3ccccc23)NC(=O)[C@@H]2CSSC[C@H](NC(=O)[C@H](Cc3ccccc3)NC(=O)[C@H](Cc3c[nH]cn3)NC(=O)[C@H](CCC(=O)O)NC(=O)[C@H](CC(N)=O)NC(=O)[C@H](Cc3ccc(O)cc3)NC1=O)C(=O)N[C@@H](CCCNC(=N)N)C(=O)N[C@@H](C(C)C)C(=O)N[C@@H](Cc1c[nH]cn1)C(=O)N[C@H](C(=O)NCC(N)=O)CSSC[C@H](NC(=O)[C@@H]1CCCN1C(C)=O)C(=O)N[C@@H](CCC(=O)O)C(=O)N[C@H]1CSSC[C@H](NC(=O)[C@H](CCC(=O)O)NC(=O)[C@H](CCC(=O)O)NC(=O)[C@H](CO)NC(=O)[C@H](CO)NC(=O)[C@H](CO)NC(=O)[C@H](C(C)C)NC(=O)[C@H]([C@@H](C)O)NC(=O)[C@H](Cc3ccc(O)cc3)NC(=O)[C@H]([C@@H](C)O)NC(=O)[C@H](CCC(=O)O)NC(=O)CNC(=O)[C@H](CC(N)=O)NC(=O)[C@H](C(C)C)NC(=O)[C@H](CC(=O)O)NC1=O)C(=O)N[C@@H](CCC(=O)O)C(=O)N1CCC[C@H]1C(=O)N[C@@H](CC(C)C)C(=O)N2 [5ji4-RSP-1] (Ac-PCECDVNGETYTVSSSEECEPLCWMYNEHFCRVHCG-NH2; disulfide 2-35, 4-19, 23-31; N-terminus and C-terminus assumed)
ELISA signal (RSP02; phage spot ELISA of the clone, positive hit: signal > 0.3 and signal/noise > 2): 0.58 | ELISA s/n (RSP02; phage spot ELISA signal/noise ratio): 5.22

CC[C@H](C)[C@@H]1NC(=O)[C@H](CCCNC(=N)N)NC(=O)[C@@H]2CSSC[C@H](NC(=O)[C@H](CC(C)C)NC(=O)[C@H](CCCNC(=N)N)NC(=O)[C@H](C)NC(=O)[C@@H]3CSSC[C@H](NC(=O)[C@H](CCC(=O)O)NC(=O)[C@@H](NC(=O)[C@@H]4CCCN4)CSSC[C@@H](C(=O)NCC(=O)O)NC(=O)[C@H](Cc4c[nH]cn4)NC1=O)C(=O)N[C@@H](CO)C(=O)N[C@@H]([C@@H](C)CC)C(=O)N[C@@H](CC(C)C)C(=O)N1CCC[C@H]1C(=O)NCC(=O)N[C@@H](Cc1c[nH]c4ccccc14)C(=O)N[C@@H](Cc1c[nH]cn1)C(=O)N[C@@H](Cc1ccccc1)C(=O)N[C@@H](CC(C)C)C(=O)N[C@@H]([C@@H](C)O)C(=O)N[C@@H](CO)C(=O)N[C@@H](CO)C(=O)N[C@@H](C)C(=O)N[C@@H](CCC(=O)O)C(=O)N3)C(=O)N[C@@H](CC(=O)O)C(=O)N[C@@H](CCCNC(=N)N)C(=O)N[C@@H](CC(C)C)C(=O)NCC(=O)N[C@@H](CC(C)C)C(=O)N[C@@H](CCCNC(=N)N)C(=O)N[C@@H]([C@@H](C)O)C(=O)N2 [5ji4_A7.c1] (H-PCECSILPGWHFLTSSAECARLCDRLGLRTCRIHCG-OH; disulfide 2-35, 4-19, 23-31)
ELISA s/n (HtrA1): 7.5 | ELISA signal (HtrA1): 3.55

PCECEQPYRDDPDKSSEECERLCRKLGVTNCRVHCG [RSP02 clone 4, phage clone, 5JI4 library, RSP02 panning]
S/N (RSP02): 1.788 | ELISA (RSP02): 0.177

PAMLLQRNRPYGLLPEECERLCRKLGVTTACHCG [CD8α clone 1, phage clone, 5JI4 library, CD8α panning]
S/N (CD8α): 39.9 | ELISA (CD8α): 4.75

PCECVRLSTGRYVKSSEECERLCRKLGVTNCRVHCG [RSP02 clone 5, phage clone, 5JI4 library, RSP02 panning]
S/N (RSP02): 1.706 | ELISA (RSP02): 0.216

PCECDVNGETYTVSSSEECGRLCQYWFIMLCRVHCG [CD8α clone 2, phage clone, 5JI4 library, CD8α panning]
S/N (CD8α): 38.5 | ELISA (CD8α): 3.391

PCECDLNGETYTVSSSEECERLCSWYIQYVCRVHCG [CD8α clone 6, phage clone, 5JI4 library, CD8α panning]
S/N (CD8α): 2.2 | ELISA (CD8α): 0.194

PCECQPMSNWFDMISSEECERLCRKLGVTNCRVHCG [RSP02 clone 3, phage clone, 5JI4 library, RSP02 panning]
S/N (RSP02): 0.8496 | ELISA (RSP02): 0.192
